Assay results: US6737383B1, “Herbicidal oxadiazolidines” (priority 1999, dated 2004)

Assays:
surinam grass = experiment: Test B pre/postemergence surinam grass; assay type: in vivo, Brachiaria decumbens
Summary of the method: (§1)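 Herbicidal effect was estimated by eye on a ten-point control scale after plants spent twelve to sixteen days in a greenhouse following soil or foliar treatment. Foliar sprays targeted plants at one to four leaves; all doses were formulated in a non-phytotoxic solvent with surfactant.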

wheat = experiment: Test B pre/postemergence wheat; assay type: in vivo, Triticum aestivum
Summary of the method: as §1

bedstraw = experiment: Test B pre/postemergence bedstraw; assay type: in vivo, Galium aparine
Summary of the method: as §1

sugar beet = experiment: Test B pre/postemergence sugar beet; assay type: in vivo, Beta vulgaris
Summary of the method: as §1

blackgrass = experiment: Test B pre/postemergence blackgrass; assay type: in vivo, Alopecurus myosuroides
Summary of the method: as §1

corn = experiment: Test B pre/postemergence corn; assay type: in vivo, Zea mays
Summary of the method: as §1

cocklebur = experiment: Test B pre/postemergence cocklebur; assay type: in vivo, Xanthium strumarium; conditions: for Cocklebur plant response rating: Postemergence; for Plant response rating, Cocklebur: Preemergence
Summary of the method: as §1

soybean = experiment: Test B pre/postemergence soybean; assay type: in vivo, Glycine max
Summary of the method: as §1

velvetleaf = experiment: Test B pre/postemergence velvetleaf; assay type: in vivo, Abutilon theophrasti
Summary of the method: as §1

crabgrass = experiment: Test B pre/postemergence crabgrass; assay type: in vivo, Digitaria sanguinalis
Summary of the method: as §1

pigweed = experiment: Test B pre/postemergence pigweed; assay type: in vivo, Amaranthus retroflexus
Summary of the method: as §1

purple nutsedge = experiment: Test B pre/postemergence purple nutsedge; assay type: in vivo, Cyperus rotundus
Summary of the method: as §1

morningglory = experiment: Test B pre/postemergence morningglory; assay type: in vivo, Ipomoea hederacea
Summary of the method: as §1

duck salad = experiment: Test B flood test duck salad; assay type: in vivo, Heteranthera limosa; conditions: Rate 125 g/ha; Postemergence section (flood test species); scale 0 to 10, 0 no effect, 10 complete control
Protocol: At the same time, these crop and weed species were also treated with postemergence applications of test chemicals formulated in the same manner. Plants ranged in height from 2 to 18 cm (1- to 4-leaf stage) for postemergence treatments. Plant species in the flood test consisted of rice (Oryza sativa), smallflower flatsedge (Cyperus difformis), duck salad (Heteranthera limosa) and bamyardgrass (Echinochloa crus-galli) grown to the 2-leaf stage for testing. Treated plants and controls were maintained in a greenhouse for twelve to sixteen days, after which all species were compared to controls and visually evaluated. Plant response ratings, summarized in Table B, are based on a scale of 0 to 10 where 0 is no effect and 10 is complete control. A dash (−) response means no test result.

giant foxtail = experiment: Test B pre/postemergence giant foxtail; assay type: in vivo, Setaria faberii
Summary of the method: as §1

wild oat = experiment: Test B pre/postemergence wild oat; assay type: in vivo, Avena fatua
Summary of the method: as §1

rape = experiment: Test B pre/postemergence rape; assay type: in vivo, Brassica napus
Summary of the method: as §1

[1] = Postemergence, Rate 62 g/ha, scale 0 to 10, 0 is no effect, 10 is complete control
[2] = Postemergence, Rate 250 g/ha, scale 0 to 10, 0 no effect, 10 complete control
[3] = Preemergence, Rate 62 g/ha, scale 0 to 10, 0 is no effect, 10 is complete control
[4] = Preemergence, Rate 125 g/ha, scale 0 to 10 (0 no effect, 10 complete control)
[5] = Preemergence, Rate 250 g/ha, scale of 0 to 10 where 0 is no effect and 10 is complete control
[6] = Preemergence, Rate 500 g/ha, scale 0 (no effect) to 10 (complete control)
[7] = Rate 125 g/ha, Postemergence, scale 0 to 10, 0 no effect, 10 complete control
[8] = Rate 500 g/ha, Postemergence, 0 to 10 scale (0 no effect, 10 complete control)
[9] = Rate 62 g/ha, scale 0 to 10, 0 is no effect, 10 is complete control

## Cc1ccccc1-n1c(=O)on(C(=O)N(c2ccc(F)cc2)C2CC2)c1=O [Compound 37]
Surinam grass; [1]
  B. signalgrass plant response rating: 0
Surinam grass; [2]
  B. signalgrass plant response rating: 0
Surinam grass; [3]
  Plant response rating, B. signalgrass: 0
Surinam grass; [4]
  Plant response rating, B. signalgrass: 0
Surinam grass; [5]
  Plant response rating, B. signalgrass: 0
Surinam grass; [6]
  B. signalgrass plant response rating: 0
Surinam grass; [7]
  B. signalgrass plant response rating: 0
Surinam grass; [8]
  B. signalgrass plant response rating: 0
wheat; [1]
  Wheat plant response rating: 0
wheat; [2]
  Wheat plant response rating: 0
wheat; [3]
  Plant response rating, Wheat: 0
wheat; [4]
  Plant response rating, Wheat: 0
wheat; [5]
  Plant response rating, Wheat: 0
wheat; [6]
  Wheat plant response rating: 0
wheat; [7]
  Wheat plant response rating: 0
bedstraw; [1]
  Bedstraw plant response rating: 0
bedstraw; [2]
  Bedstraw plant response rating: 0
bedstraw; [3]
  Plant response rating, Bedstraw: 0
bedstraw; [4]
  Plant response rating, Bedstraw: 0
bedstraw; [5]
  Plant response rating, Bedstraw: 0
bedstraw; [6]
  Bedstraw plant response rating: 0
bedstraw; [7]
  Bedstraw plant response rating: 0
bedstraw; [8]
  Bedstraw plant response rating: 0
Sugar beet; [1]
  Sugarbeets plant response rating: 0
Sugar beet; [2]
  Sugarbeets plant response rating: 0
Sugar beet; [3]
  Plant response rating, Sugarbeets: 0
Sugar beet; [4]
  Plant response rating, Sugarbeets: 0
Sugar beet; [5]
  Plant response rating, Sugarbeets: 0
Sugar beet; [6]
  Sugarbeets plant response rating: 0
Sugar beet; [7]
  Sugarbeets plant response rating: 0
blackgrass; [1]
  Blackgrass plant response rating: 0
blackgrass; [2]
  Blackgrass plant response rating: 0
blackgrass; [3]
  Plant response rating, Blackgrass: 0
blackgrass; [4]
  Plant response rating, Blackgrass: 0
blackgrass; [5]
  Plant response rating, Blackgrass: 0
blackgrass; [6]
  Blackgrass plant response rating: 0
blackgrass; [7]
  Blackgrass plant response rating: 0
blackgrass; [8]
  Blackgrass plant response rating: 0
corn; [1]
  Corn plant response rating: 0
corn; [2]
  Corn plant response rating: 0
corn; [3]
  Plant response rating, Corn: 0
corn; [4]
  Plant response rating, Corn: 0
corn; [5]
  Plant response rating, Corn: 0
corn; [6]
  Corn plant response rating: 0
corn; [7]
  Corn plant response rating: 0
corn; [8]
  Corn plant response rating: 0
cocklebur; [9]
  Cocklebur plant response rating: 0
  Plant response rating, Cocklebur: 0
cocklebur; Rate 250 g/ha, scale 0 to 10, 0 no effect, 10 complete control
  Cocklebur plant response rating: 0
cocklebur; Rate 125 g/ha, scale 0 to 10 (0 no effect, 10 complete control)
  Plant response rating, Cocklebur: 0
cocklebur; Rate 250 g/ha, scale of 0 to 10 where 0 is no effect and 10 is complete control
  Plant response rating, Cocklebur: 0
cocklebur; Rate 125 g/ha, scale 0 to 10, 0 no effect, 10 complete control
  Cocklebur plant response rating: 0
cocklebur; Rate 500 g/ha, 0 to 10 scale (0 no effect, 10 complete control)
  Cocklebur plant response rating: 1
soybean; [1]
  Soybean plant response rating: 0
soybean; [2]
  Soybean plant response rating: 0
soybean; [3]
  Plant response rating, Soybean: 0
soybean; [4]
  Plant response rating, Soybean: 0
soybean; [5]
  Plant response rating, Soybean: 0
soybean; [6]
  Soybean plant response rating: 0
soybean; [7]
  Soybean plant response rating: 0
velvetleaf; [1]
  Velvetleaf plant response rating: 0
velvetleaf; [2]
  Velvetleaf plant response rating: 0
velvetleaf; [3]
  Plant response rating, Velvetleaf: 0
velvetleaf; [4]
  Plant response rating, Velvetleaf: 0
velvetleaf; [5]
  Plant response rating, Velvetleaf: 0
velvetleaf; [6]
  Velvetleaf plant response rating: 0
velvetleaf; [7]
  Velvetleaf plant response rating: 0
crabgrass; [1]
  Crabgrass plant response rating: 0
crabgrass; [2]
  Crabgrass plant response rating: 0
crabgrass; [3]
  Plant response rating, Crabgrass: 0
crabgrass; [4]
  Plant response rating, Crabgrass: 0
crabgrass; [5]
  Plant response rating, Crabgrass: 3
crabgrass; [6]
  Crabgrass plant response rating: 5
crabgrass; [7]
  Crabgrass plant response rating: 0
crabgrass; [8]
  Crabgrass plant response rating: 3
pigweed; [1]
  Redroot pigweed plant response rating: 0
pigweed; [2]
  Redroot pigweed plant response rating: 0
pigweed; [3]
  Plant response rating, Redroot pigweed: 0
pigweed; [4]
  Plant response rating, Redroot pigweed: 0
pigweed; [5]
  Plant response rating, Redroot pigweed: 0
pigweed; [6]
  Redroot pigweed plant response rating: 0
pigweed; [7]
  Redroot pigweed plant response rating: 0
pigweed; [8]
  Redroot pigweed plant response rating: 0
Purple nutsedge; [1]
  Nutsedge plant response rating: 0
Purple nutsedge; [2]
  Nutsedge plant response rating: 0
Purple nutsedge; [3]
  Plant response rating, Nutsedge: 0
Purple nutsedge; [4]
  Plant response rating, Nutsedge: 0
Purple nutsedge; [5]
  Plant response rating, Nutsedge: 0
Purple nutsedge; [6]
  Nutsedge plant response rating: 0
Purple nutsedge; [7]
  Nutsedge plant response rating: 0
morningglory; [1]
  Morningglory plant response rating: 0
morningglory; [2]
  Morningglory plant response rating: 0
morningglory; [3]
  Plant response rating, Morningglory: 0
morningglory; [4]
  Plant response rating, Morningglory: 0
morningglory; [5]
  Plant response rating, Morningglory: 0
morningglory; [6]
  Morningglory plant response rating: 0
morningglory; [7]
  Morningglory plant response rating: 0
morningglory; [8]
  Morningglory plant response rating: 1
Duck salad
  Ducksalad plant response rating: 0
Giant foxtail; [1]
  Giant foxtail plant response rating: 0
Giant foxtail; [2]
  Giant foxtail plant response rating: 0
Giant foxtail; [3]
  Plant response rating, Giant foxtail: 0
Giant foxtail; [4]
  Plant response rating, Giant foxtail: 0
Giant foxtail; [5]
  Plant response rating, Giant foxtail: 2
Giant foxtail; [6]
  Giant foxtail plant response rating: 3
Giant foxtail; [7]
  Giant foxtail plant response rating: 0
Giant foxtail; [8]
  Giant foxtail plant response rating: 0
Wild oat; [1]
  Wild oats plant response rating: 0
Wild oat; [2]
  Wild oats plant response rating: 0
Wild oat; [4]
  Plant response rating, Wild oats: 0
Wild oat; [5]
  Plant response rating, Wild oats: 0
Wild oat; [6]
  Wild oats plant response rating: 0
Wild oat; [7]
  Wild oats plant response rating: 0
rape; [1]
  Rape plant response rating: 0
rape; [2]
  Rape plant response rating: 0
rape; [3]
  Plant response rating, Rape: 0
rape; [4]
  Plant response rating, Rape: 0
rape; [5]
  Plant response rating, Rape: 0
rape; [6]
  Rape plant response rating: 0
rape; [7]
  Rape plant response rating: 0
rape; [8]
  Rape plant response rating: 0
